Paper PMC11106745 (ACS Chemical Biology, 2024)
Values joined by “and” are separate entries in the source; they are usually repeats but may differ in a detail not shown here. Identical values can stand only once. Like-named read-outs stand apart in the source and are kept apart here.

Tests used:
SARS-CoV-2 Mac1 [1] = biological target: T1, SARS-CoV-2 Mac1 (Severe acute respiratory syndrome coronavirus 2, UniProt P0DTD1); assay: biochemical; assay type: binding; conditions: for koff: read-out: kdis
MERS-CoV Mac1 [2] = biological target: T2, MERS-CoV Mac1 (Middle East respiratory syndrome-related coronavirus, UniProt K9N7C7); assay: biochemical; assay type: binding; conditions: for koff: read-out: kdis
CHIKV Mac [3] = biological target: T3, CHIKV Mac (Chikungunya virus, UniProt Q8JUX6); assay: biochemical; assay type: binding; conditions: for koff: read-out: kdis
VEEV Mac = VEEV Mac (Venezuelan equine encephalitis virus, UniProt P27282); assay: biochemical; assay type: binding; conditions: for koff: read-out: kdis
SARS-CoV-2 Mac1 [4] = biological target: T1, SARS-CoV-2 Mac1; assay: biochemical; assay type: binding; conditions: IC50
MERS-CoV Mac1 [5] = biological target: T2, MERS-CoV Mac1; assay: biochemical; assay type: binding
CHIKV Mac [6] = biological target: T3, CHIKV Mac; assay: biochemical; assay type: binding
SARS-CoV-2 Mac1 [7] = biological target: T1, SARS-CoV-2 Mac1; conditions: cited from earlier work
SARS-CoV-2 Mac1 [8] = biological target: T1, SARS-CoV-2 Mac1; conditions: cited from earlier work; remark: listed apart in the source
SARS-CoV-2 Mac1 [9] = biological target: T1, SARS-CoV-2 Mac1; conditions: cited from earlier work; remark: listed apart in the source

T3 sequence (Q8JUX6 1334-1493 limits assumed): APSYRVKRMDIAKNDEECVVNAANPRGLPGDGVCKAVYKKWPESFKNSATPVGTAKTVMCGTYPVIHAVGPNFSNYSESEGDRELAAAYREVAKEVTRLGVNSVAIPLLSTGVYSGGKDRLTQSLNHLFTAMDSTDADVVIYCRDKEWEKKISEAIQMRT
VEEV Mac, sequence (P27282 1330-1489 limits assumed): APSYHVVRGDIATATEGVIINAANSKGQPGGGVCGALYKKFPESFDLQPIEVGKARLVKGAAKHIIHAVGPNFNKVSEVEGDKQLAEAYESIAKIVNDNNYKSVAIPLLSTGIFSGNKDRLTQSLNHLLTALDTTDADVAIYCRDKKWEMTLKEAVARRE
T2 sequence (K9N7C7 1110-1276 limits assumed): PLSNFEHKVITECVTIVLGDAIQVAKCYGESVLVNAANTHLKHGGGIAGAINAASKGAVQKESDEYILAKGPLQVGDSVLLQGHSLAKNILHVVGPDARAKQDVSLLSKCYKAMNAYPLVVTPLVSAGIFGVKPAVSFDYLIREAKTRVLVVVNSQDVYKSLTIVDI

Compound: Nc1ncnc2c1ncn2[C@@H]1O[C@H](COP(=O)(O)OP(=O)(O)OC[C@H]2O[C@H](n3cc(COCCOCCOCCOCCNC(=O)CCCC[C@@H]4SC[C@@H]5NC(=O)N[C@@H]54)nn3)[C@H](O)[C@@H]2O)[C@@H](O)[C@H]1O [biotin-ADPr]
- Kd (SARS-CoV-2 Mac1 [1]): 19600 nM
- kon (SARS-CoV-2 Mac1 [1]): 53000 ± 3000 M⁻¹ s⁻¹
- koff (SARS-CoV-2 Mac1 [1]): 1 ± 0.05 s⁻¹
- kon (MERS-CoV Mac1 [2]): 320000 ± 10000 M⁻¹ s⁻¹
- Kd (MERS-CoV Mac1 [2]): 2100 ± 100 nM
- koff (MERS-CoV Mac1 [2]): 0.7 ± 0.03 s⁻¹
- kon (CHIKV Mac [3]): 120000 ± 3000 M⁻¹ s⁻¹
- Kd (CHIKV Mac [3]): 5300 ± 200 nM
- koff (CHIKV Mac [3]): 0.65 ± 0.02 s⁻¹
- kon (VEEV Mac): 140000 ± 8000 M⁻¹ s⁻¹
- koff (VEEV Mac): 0.79 ± 0.04 s⁻¹
- IC50 (SARS-CoV-2 Mac1 [4]): 3500 nM
- IC50 (MERS-CoV Mac1 [5]): 6800 nM
- IC50 (CHIKV Mac [6]): 22200 nM

Compound: N#C[C@@]1(c2ccc3c(N)ncnn23)O[C@H](COP(=O)(O)OP(=O)(O)OC[C@H]2O[C@H](n3cc(COCCOCCOCCOCCNC(=O)CCCC[C@@H]4SC[C@@H]5NC(=O)N[C@@H]54)nn3)[C@H](O)[C@@H]2O)[C@@H](O)[C@H]1O [biotin-NDPr]
- Kd (SARS-CoV-2 Mac1 [1]): 280 ± 10 nM
- fold more potent than biotin-ADPr based on Kd (SARS-CoV-2 Mac1 [1]): ~70 fold
- kon (SARS-CoV-2 Mac1 [1]): 310000 ± 5000 M⁻¹ s⁻¹
- koff (SARS-CoV-2 Mac1 [1]): 0.085 ± 0.001 s⁻¹
- kon (MERS-CoV Mac1 [2]): 1.3e+06 ± 50000 M⁻¹ s⁻¹
- Kd (MERS-CoV Mac1 [2]): 210 ± 10 nM
- koff (MERS-CoV Mac1 [2]): 0.27 ± 0.01 s⁻¹
- fold stronger than biotin-ADPr (CHIKV Mac [3]): ~15 fold
- kon (CHIKV Mac [3]): 180000 ± 4000 M⁻¹ s⁻¹
- Kd (CHIKV Mac [3]): 331 nM and 330 nM
- koff (CHIKV Mac [3]): 0.06 ± 0.0009 s⁻¹
- kon (VEEV Mac): 580000 ± 6000 M⁻¹ s⁻¹
- koff (VEEV Mac): 0.076 ± 0.0008 s⁻¹
- IC50 (SARS-CoV-2 Mac1 [4]): 57 nM
- IC50 (MERS-CoV Mac1 [5]): 1200 nM
- IC50 (CHIKV Mac [6]): 950 nM

Compound: Nc1ncnc2c1ncn2[C@@H]1O[C@H](COP(=O)(O)OP(=O)(O)OC[C@H]2O[C@H](Oc3ccc(Cn4cc(COCCOCCOCCOCCNC(=O)CCCC[C@@H]5SC[C@@H]6NC(=O)N[C@@H]65)nn4)cc3)[C@H](O)[C@@H]2O)[C@@H](O)[C@H]1O [biotin-Ph-ADPr]
- Kd (SARS-CoV-2 Mac1 [1]): 420 ± 10 nM
- fold more potent than biotin-ADPr based on Kd (SARS-CoV-2 Mac1 [1]): ~50 fold
- kon (SARS-CoV-2 Mac1 [1]): 270000 ± 5000 M⁻¹ s⁻¹
- koff (SARS-CoV-2 Mac1 [1]): 0.11 ± 0.002 s⁻¹
- fold decrease in Kd compared to biotin-ADPr (MERS-CoV Mac1 [2]): 20 fold
- kon (MERS-CoV Mac1 [2]): 1.1e+06 ± 30000 M⁻¹ s⁻¹
- Kd (MERS-CoV Mac1 [2]): 100 ± 4 nM
- koff (MERS-CoV Mac1 [2]): 0.11 ± 0.003 s⁻¹
- kon (CHIKV Mac [3]): 19000 ± 500 M⁻¹ s⁻¹
- Kd (CHIKV Mac [3]): 6200 ± 200 nM
- koff (CHIKV Mac [3]): 0.12 ± 0.002 s⁻¹
- fold decrease in Kd compared to biotin-ADPr (VEEV Mac): 30 fold
- kon (VEEV Mac): 520000 ± 6000 M⁻¹ s⁻¹
- koff (VEEV Mac): 0.083 ± 0.0008 s⁻¹
- IC50 (SARS-CoV-2 Mac1 [4]): 130 nM
- IC50 (MERS-CoV Mac1 [5]): 310 nM
- IC50 (CHIKV Mac [6]): > 10000 nM

Compound: N#C[C@@]1(c2ccc3c(N)ncnn23)O[C@H](COP(=O)(O)OP(=O)(O)OC[C@H]2O[C@H](Oc3ccc(Cn4cc(COCCOCCOCCOCCNC(=O)CCCC[C@@H]5SC[C@@H]6NC(=O)N[C@@H]65)nn4)cc3)[C@H](O)[C@@H]2O)[C@@H](O)[C@H]1O [biotin-Ph-NDPr]
- Kd (SARS-CoV-2 Mac1 [1]): 24 nM
- fold more potent than biotin-ADPr based on Kd (SARS-CoV-2 Mac1 [1]): ~1000 fold
- kdis fold smaller than that of biotin-ADPr (SARS-CoV-2 Mac1 [1]): more than 100 fold
- kon (SARS-CoV-2 Mac1 [1]): 300000 ± 3000 M⁻¹ s⁻¹
- koff (SARS-CoV-2 Mac1 [1]): 0.0071 s⁻¹
- fold decrease in Kd compared to biotin-ADPr (MERS-CoV Mac1 [2]): ~100 fold
- kon (MERS-CoV Mac1 [2]): 1.8e+06 ± 10000 M⁻¹ s⁻¹
- Kd (MERS-CoV Mac1 [2]): 17.2 nM and 17 nM
- koff (MERS-CoV Mac1 [2]): 0.031 ± 0.0002 s⁻¹
- kon (CHIKV Mac [3]): 190000 ± 6000 M⁻¹ s⁻¹
- Kd (CHIKV Mac [3]): 570 ± 20 nM
- koff (CHIKV Mac [3]): 0.11 ± 0.003 s⁻¹
- fold decrease in Kd compared to biotin-ADPr (VEEV Mac): 400 fold
- kon (VEEV Mac): 820000 ± 7000 M⁻¹ s⁻¹
- koff (VEEV Mac): 0.014 ± 6e-05 s⁻¹
- IC50 (SARS-CoV-2 Mac1 [4]): 11 nM
- IC50 (MERS-CoV Mac1 [5]): 100 nM
- IC50 (CHIKV Mac [6]): 860 nM

Compound: O=C(O)[C@H](Cc1c[nH]c2ccccc12)Nc1ncnc2[nH]ccc12 [compound 15c]
- IC50 (SARS-CoV-2 Mac1 [7]): 6.1 µM

Compound: COC(=O)c1c(NC(=O)[C@@H]2CCC[C@@H](C(=O)O)C2)sc2c1CCCCCC2 [compound 27]
- IC50 (SARS-CoV-2 Mac1 [8]): 2100 nM

Compound: Nc1ncnc2c1ncn2C1OC(COP(=O)(O)OP(=O)(O)OCC2OC(Oc3ccc([N+](=O)[O-])cc3)C(O)C2O)C(O)C1O (stereo not drawn) [pNP-ADPr]
- IC50 (SARS-CoV-2 Mac1 [9]): 370 nM
- fold more potent than ADPr (SARS-CoV-2 Mac1 [9]): > 20 fold
